# Measurements taken from PubChem BioAssay AID463109 (Sanford-Burnham Center for Chemical Genomics, 2010).
# pIC50: −log10 of the molar value. Active and inactive are the calls of the source.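 How the source made its calls: active means mean IC50 below 10 µM; inactive means the rest.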
# Target: Apelin receptor (Homo sapiens) (UniProt P35414)
# Assay: apelin receptor inhibitor analogs – cell-based, luminescence, SAR follow-up (AID 463109)
# Details: CHO-K1 AGTRL-1 PathHunter beta-arrestin luminescence
# Sequence of Apelin receptor (Homo sapiens) (P35414 whole entry, looked up): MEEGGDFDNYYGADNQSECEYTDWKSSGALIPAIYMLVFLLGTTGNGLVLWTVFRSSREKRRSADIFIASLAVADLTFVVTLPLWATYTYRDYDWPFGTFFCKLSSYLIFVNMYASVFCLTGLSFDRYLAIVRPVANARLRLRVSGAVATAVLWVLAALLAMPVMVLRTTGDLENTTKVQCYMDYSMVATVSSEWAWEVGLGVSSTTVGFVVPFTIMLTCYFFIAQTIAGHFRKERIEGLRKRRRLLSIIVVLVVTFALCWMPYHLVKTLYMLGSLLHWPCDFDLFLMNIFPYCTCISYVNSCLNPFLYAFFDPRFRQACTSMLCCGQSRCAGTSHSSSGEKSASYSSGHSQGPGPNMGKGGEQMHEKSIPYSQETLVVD
Compound,IC50,pIC50
CC(=O)Nc1ccc(NC(=O)CCC(=O)OCC(=O)c2ccc(C)c([N+](=O)[O-])c2)cc1,inactive,–
CCC[N+](CC#Cc1ccccc1)(CCC)CC(=O)c1ccc(Cl)cc1,inactive,–
Oc1cccc2ccc(/C=C/c3ccccc3Cl)nc12,inactive,–
O=C(CNc1ccc(Br)cc1)c1ccccc1,–,5.65
Cc1ccc(C(=O)CNc2ccccc2)cc1,–,5.55
CC1(C)CC2(CC(c3ccccc3F)c3cc(Cl)c(O)cc3O2)NC(=S)N1 (stereo not given),–,5.24
CCOc1ccc(N=C2C(=O)Nc3ccc(C)c(Br)c32)cc1,–,5.18
O=S(=O)(NN=Cc1ccc(-c2ccccc2Cl)o1)c1ccccc1,inactive,–
O=C(COC(=O)c1cnccn1)c1ccc(Cl)c([N+](=O)[O-])c1,–,5.08
CC(C)N1CCc2c(sc(NC(=O)c3cc(-c4cccs4)nc4ccccc34)c2C(N)=O)C1,inactive,–
O=C(Nc1nc2ccc(F)cc2s1)c1ccccn1,inactive,–
COc1ccc(C(=O)CNc2cccc(F)c2)cc1,inactive,–
O=C1Nc2ccccc2C1=Nc1ccc(Br)cc1,–,5.26
Cc1ccc(C(=O)CNc2cc(C)ccc2C)cc1,–,5.64
COc1ccc(N=C2C(=O)Nc3ccc(C)c(Br)c32)cc1,> 79 µM (inactive),–
Cc1ccc(OCC(=O)OCC(=O)c2cccc([N+](=O)[O-])c2)cc1C,inactive,–
CC(C)OC(=O)CN1C(=O)C(=O)c2ccccc21,–,5.38
NC(=O)c1ccccc1NCC(=O)c1ccc(Cl)cc1,–,5.54
O=c1c2cc(Br)ccc2[nH]c(=S)n1Cc1ccccn1,inactive,–
CC(=O)c1ccc(N=C2C(=O)Nc3ccccc32)cc1,–,5.84
O=C1Nc2ccccc2C1=Nc1ccc(F)cc1,–,5.23
O=c1cc(CSc2ccc(Cl)cc2)nc(-c2ccccn2)[nH]1,inactive,–
O=C(CNS(=O)(=O)c1ccccc1)OCC(=O)c1cccc([N+](=O)[O-])c1,inactive,–
Cc1cccc2c1NC(=O)C2=Nc1ccc(Cl)cc1,–,5.09
O=C(CNc1cccc(Cl)c1)c1ccc(Br)cc1,> 79 µM (inactive),–
Cc1ccc2nc(C)cc(C(=O)OCC(=O)c3ccc(Cl)c([N+](=O)[O-])c3)c2c1,inactive,–
Cc1cc(C)nc(NNS(=O)(=O)c2ccc(F)c(Cl)c2)n1,–,5.58
Cc1ccc(N=C2C(=O)Nc3c(C)cccc32)cc1,inactive,–

Compound,IC50,pIC50
Cc1ccc(N=C2C(=O)Nc3ccccc32)cc1,inactive,–
Cc1ccc(C)c(NCC(=O)c2ccc(Cl)cc2)c1,–,6.05
CNC(=O)c1nnsc1S(=O)(=O)c1ccc(Cl)cc1,inactive,–
CCN(CC)CC(=O)c1ccc(-c2ccccc2)cc1,inactive,–
COC(=O)C1NN=C(C(=O)c2ccc(Cl)cc2)C1c1ccc(OC)cc1 (stereo not given),inactive,–
Cc1ccc(N=C2C(=O)Nc3ccc(Br)cc32)cc1,–,5.33
Cn1c(=O)c(C(=S)NC(=O)C2CC2)c(N)n(Cc2ccccc2)c1=O,inactive,–
O=C(COC(=O)c1cccnc1)c1ccc(Cl)c(Cl)c1,inactive,–
S=C1NCCc2ccccc2C1c1ccccc1Cl (stereo not given),inactive,–
COc1ccc(S(=O)(=O)NNc2nc(C)cc(C)n2)cc1[N+](=O)[O-],inactive,–
O=C(COC(=O)c1ccncc1)c1ccc(Cl)c(Cl)c1,inactive,–
CC(C)(C)c1ccc(-n2nc(C#N)c(Cl)cc2=O)cc1,–,5.45
COc1cccc(/C=C/c2ccc3cccc(O)c3n2)c1OC,inactive,–
Cc1cc(C)nc(NNS(=O)(=O)c2ccc(Cl)cc2)n1,–,5.05
COc1ccc(S(=O)(=O)NNc2nc(C)cc(C)n2)cc1Br,inactive,–
CC(C)Cc1nc2oc3c(Cl)ncnc3c2c2c1CCC2,inactive,–
O=C(CNC(=O)c1ccco1)NCC(=O)OCC(=O)c1ccc(Cl)c([N+](=O)[O-])c1,–,5.27
CC(C(=O)OCC(=O)c1cccc([N+](=O)[O-])c1)N1C(=O)C2C3C=CC(C3)C2C1=O (stereo not given),inactive,–
O=C(Nc1nc2c(F)cc(F)cc2s1)c1ccccn1,–,5.12
O=C(CNc1ccccc1C(=O)O)c1ccccc1,–,5.53
Cc1cccc(N=C2C(=O)Nc3c(Cl)cccc32)c1,–,5.64
CCC1CCCCN1CC(=O)c1ccc(OC(F)F)cc1 (stereo not given),inactive,–
FC(F)(F)c1cccc(Sc2nc(-c3ccccc3)nnc2C(F)(F)F)c1,inactive,–
Cc1cc(C)nc(NNS(=O)(=O)c2c(F)cc(F)cc2Br)n1,–,5.54
CSc1cccc(N=C2C(=O)Nc3ccccc32)c1,–,5.42
CCOC(=O)C1=NNC(C(=O)c2ccc(Cl)cc2)C1c1ccccc1 (stereo not given),inactive,–
COc1ccccc1NCC(=O)c1ccc(Cl)cc1,–,5.46
